According to ChEMBL document CHEMBL2429724, “Computational POM evaluation of experimental in vitro Trypanosoma cruzi and Mycobacterium tuberculosis inhibition of heterocyclic-2-carboxylic acid (3-cyano-1,4-di-noxidequinoxalin-2-yl)amide derivatives” (Med Chem Res, 2013):
In brackets after ≈: the same amount, converted by molar mass.

Experiments:
Trypanosoma cruzi [1] = test: Antimicrobial activity against benznidazole-resistant epimastigotes of Trypanosoma cruzi Tulahuen 2 assessed as growth inhibition at 25 uM measured on day 5 by spectrophotometry; format: functional; details: Tulahuen 2, 120 h, read-out: GI
[2] = test system: Mycobacterium tuberculosis; test: Antimicrobial activity against Mycobacterium tuberculosis H37Rv ATCC 27294 by microplate Alamar Blue assay; format: functional
Trypanosoma cruzi [3] = test: Antimicrobial activity against benznidazole-resistant epimastigotes of Trypanosoma cruzi Tulahuen 2 assessed as growth inhibition measured on day 5 by spectrophotometry; format: functional, organism-based; details: Tulahuen 2, 120 h

| Structure (SMILES) | inhibition of growth at 25 µM (Trypanosoma cruzi [1]) [%] | MIC [2] [µg/mL] | MIC (Trypanosoma cruzi [3]) [µM] |
| --- | --- | --- | --- |
| N#Cc1c(NC(=O)c2ccc([N+](=O)[O-])s2)[n+]([O-])c2cc(Cl)c(Cl)cc2[n+]1[O-] | 29.8 |  |  |
| N#Cc1c(NC(=O)c2ccco2)[n+]([O-])c2ccc(Cl)cc2[n+]1[O-] |  | 15.4 (≈ 46.4 µM) |  |
| N#Cc1c(NC(=O)c2ccc([N+](=O)[O-])o2)[n+]([O-])c2cc(C(F)(F)F)ccc2[n+]1[O-] |  | 12.8 (≈ 31.3 µM) |  |
| COc1ccc2c(c1)[n+]([O-])c(C#N)c(NC(=O)c1ccco1)[n+]2[O-] | 9.5 |  |  |
| N#Cc1c(NC(=O)c2ccc([N+](=O)[O-])s2)[n+]([O-])c2cc(C(F)(F)F)ccc2[n+]1[O-] |  | 1.7 (≈ 4 µM) |  |
| Cc1cc2c(cc1C)[n+]([O-])c(NC(=O)c1ccc([N+](=O)[O-])o1)c(C#N)[n+]2[O-] | 0 |  |  |
| CC1CS(=O)(=O)CCN1/N=C/c1ccc([N+](=O)[O-])o1 (configuration not stated) [NIFURTIMOX] | 100 |  | 7.7 (≈ 2.21 µg/mL) |
| Cc1cc2c(cc1C)[n+]([O-])c(NC(=O)c1cccs1)c(C#N)[n+]2[O-] | 13.5 | 1.19 (≈ 3.5 µM) |  |
| N#Cc1c(NC(=O)c2cccs2)[n+]([O-])c2ccc(Cl)cc2[n+]1[O-] |  | 2.47 (≈ 7.12 µM) |  |
| Cc1ccc2c(c1)[n+]([O-])c(C#N)c(NC(=O)c1ccc([N+](=O)[O-])o1)[n+]2[O-] | 0 |  |  |
| N#Cc1c(NC(=O)c2ccc([N+](=O)[O-])o2)[n+]([O-])c2cc(Cl)c(Cl)cc2[n+]1[O-] |  | 13.6 (≈ 33.1 µM) |  |
| N#Cc1c(NC(=O)c2cccs2)[n+]([O-])c2cc(Cl)c(Cl)cc2[n+]1[O-] |  | 13.6 (≈ 35.7 µM) |  |
| COc1ccc2c(c1)[n+]([O-])c(C#N)c(NC(=O)c1ccc([N+](=O)[O-])s1)[n+]2[O-] |  | 9.54 (≈ 24.6 µM) |  |
| N#Cc1c(NC(=O)c2cccs2)[n+]([O-])c2cc(F)ccc2[n+]1[O-] |  | 4.58 (≈ 13.9 µM) |  |
| N#Cc1c(NC(=O)c2ccco2)[n+]([O-])c2cc(C(F)(F)F)ccc2[n+]1[O-] |  | 17.9 (≈ 49.1 µM) |  |
| N#Cc1c(NC(=O)c2ccco2)[n+]([O-])c2cc(Cl)c(Cl)cc2[n+]1[O-] | 31.6 |  |  |
| N#Cc1c(NC(=O)c2ccc([N+](=O)[O-])o2)[n+]([O-])c2ccc(C(F)(F)F)cc2[n+]1[O-] |  | 14.4 (≈ 35.2 µM) |  |
| Cc1ccc2c(c1)[n+]([O-])c(C#N)c(NC(=O)c1ccco1)[n+]2[O-] | 11.6 | 8.84 (≈ 28.5 µM) |  |
| N#Cc1c(NC(=O)c2ccc([N+](=O)[O-])s2)[n+]([O-])c2ccccc2[n+]1[O-] | 0 | 2.88 (≈ 8.06 µM) |  |
| N#Cc1c(NC(=O)c2ccco2)[n+]([O-])c2ccccc2[n+]1[O-] | 3.1 | 0.977 (≈ 3.3 µM) |  |
| COc1ccc2c(c1)[n+]([O-])c(C#N)c(NC(=O)c1cccs1)[n+]2[O-] | 15.1 | 48.9 (≈ 143 µM) |  |

| Structure (SMILES) | inhibition of growth at 25 µM (Trypanosoma cruzi [1]) [%] | MIC [2] [µg/mL] | MIC (Trypanosoma cruzi [3]) [µM] |
| --- | --- | --- | --- |
| N#Cc1c(NC(=O)c2ccc([N+](=O)[O-])s2)[n+]([O-])c2ccc(C(F)(F)F)cc2[n+]1[O-] |  | 6 (≈ 14.1 µM) |  |
| N#Cc1c(NC(=O)c2cccs2)[n+]([O-])c2cc(F)c(F)cc2[n+]1[O-] | 92 |  |  |
| N#Cc1c(NC(=O)c2ccc([N+](=O)[O-])s2)[n+]([O-])c2cc(F)c(F)cc2[n+]1[O-] | 9.2 |  |  |
| N#Cc1c(NC(=O)c2ccco2)[n+]([O-])c2ccc(C(F)(F)F)cc2[n+]1[O-] |  | 24.2 (≈ 66.5 µM) |  |
| N#Cc1c(NC(=O)c2ccc([N+](=O)[O-])s2)[n+]([O-])c2ccc(Cl)cc2[n+]1[O-] | 15 |  |  |
| N#Cc1c(NC(=O)c2ccco2)[n+]([O-])c2cc(F)c(F)cc2[n+]1[O-] | 53 | 4.7 (≈ 14.1 µM) |  |
| Cc1cc2c(cc1C)[n+]([O-])c(NC(=O)c1ccc([N+](=O)[O-])s1)c(C#N)[n+]2[O-] | 36.4 |  |  |
| N#Cc1c(NC(=O)c2cccs2)[n+]([O-])c2ccccc2[n+]1[O-] | 19 | 5.38 (≈ 17.2 µM) |  |
| N#Cc1c(NC(=O)c2cccs2)[n+]([O-])c2ccc(C(F)(F)F)cc2[n+]1[O-] |  | 9.18 (≈ 24.1 µM) |  |
| N#Cc1c(NC(=O)c2ccco2)[n+]([O-])c2ccc(F)cc2[n+]1[O-] | 19.8 |  |  |
| COc1ccc2c(c1)[n+]([O-])c(C#N)c(NC(=O)c1ccc([N+](=O)[O-])o1)[n+]2[O-] |  | 14.5 (≈ 39 µM) |  |
| Cc1ccc2c(c1)[n+]([O-])c(C#N)c(NC(=O)c1cccs1)[n+]2[O-] | 16.4 | 2.08 (≈ 6.37 µM) |  |
| N#Cc1c(NC(=O)c2ccc([N+](=O)[O-])o2)[n+]([O-])c2ccc(Cl)cc2[n+]1[O-] |  | 5.81 (≈ 15.5 µM) |  |
| Cc1ccc2c(c1)[n+]([O-])c(C#N)c(NC(=O)c1ccc([N+](=O)[O-])s1)[n+]2[O-] | 11.4 |  |  |
| N#Cc1c(NC(=O)c2cccs2)[n+]([O-])c2ccc(F)cc2[n+]1[O-] | 27.5 | 1.47 (≈ 4.45 µM) |  |
| N#Cc1c(NC(=O)c2ccc([N+](=O)[O-])s2)[n+]([O-])c2ccc(F)cc2[n+]1[O-] | 2.5 |  |  |
| CO[C@H]1/C=C/O[C@@]2(C)Oc3c(C)c(O)c4c(O)c(c(/C=N/N5CCN(C)CC5)c(O)c4c3C2=O)NC(=O)/C(C)=C\C=C\[C@H](C)[C@H](O)[C@@H](C)[C@@H](O)[C@@H](C)[C@H](OC(C)=O)[C@@H]1C [RIFAMPIN] |  | 0.125 (≈ 0.152 µM) |  |
| N#Cc1c(NC(=O)c2ccc([N+](=O)[O-])o2)[n+]([O-])c2ccccc2[n+]1[O-] | 0.7 |  |  |
| N#Cc1c(NC(=O)c2ccc([N+](=O)[O-])o2)[n+]([O-])c2cc(F)c(F)cc2[n+]1[O-] |  | 22.2 (≈ 58.7 µM) |  |
| Cc1cc2c(cc1C)[n+]([O-])c(NC(=O)c1ccco1)c(C#N)[n+]2[O-] | 13.1 |  |  |
| N#Cc1c(NC(=O)c2ccc([N+](=O)[O-])o2)[n+]([O-])c2ccc(F)cc2[n+]1[O-] |  | 21.7 (≈ 60.4 µM) |  |
